Experimental data taken from PMC4844702, “Selective inhibition of the kinase DYRK1A by targeting its folding process” (Nature Communications, 2016).

How the values were obtained:
Assay in all cases: Kinase panel (Carna)
Type in all cases: biochemical
ROCK2 = target: T1, ROCK2 (Homo sapiens, UniProt O75116)
T1 construct: purchased Carna Biosciences

TSSK2 = target: T2, TSSK2 (Homo sapiens, UniProt Q96PF2)
T2 construct: purchased Carna Biosciences
From the text: (§1) Detailed information on the assay conditions is available on the website of Carna Biosciences (http://www.carnabio.com).

PIK3CA/PIK3R1 = target: T3, PIK3CA/PIK3R1 (Homo sapiens, UniProt P42336)
T3 construct: purchased Carna Biosciences
From the text: as §1

EPHA4 = target: T4, EPHA4 (Homo sapiens, UniProt P54764)
T4 construct: purchased Carna Biosciences

YES = target: T5, YES (Homo sapiens, UniProt P07947)
T5 construct: purchased Carna Biosciences
From the text: as §1

PLK1 = target: T6, PLK1 (Homo sapiens, UniProt P53350)
T6 construct: purchased Carna Biosciences

CaMK4 = target: T7, CaMK4 (Homo sapiens, UniProt Q16566)
T7 construct: purchased Carna Biosciences

MAPKAPK5 = target: T8, MAPKAPK5 (Homo sapiens, UniProt Q8IW41)
T8 construct: purchased Carna Biosciences

CK2α1/β = target: T9, CK2α1/β (Homo sapiens, UniProt P68400)
T9 construct: purchased Carna Biosciences

HER2 = target: T10, HER2 (Homo sapiens, UniProt P04626)
T10 construct: purchased Carna Biosciences
From the text: as §1

MARK3 = target: T11, MARK3 (Homo sapiens, UniProt P27448)
T11 construct: purchased Carna Biosciences
From the text: as §1

INSR = target: T12, INSR (Homo sapiens, UniProt P06213)
T12 construct: purchased Carna Biosciences
From the text: as §1

PDHK2 = target: T13, PDHK2 (Homo sapiens, UniProt Q15119)
T13 construct: purchased Carna Biosciences
From the text: as §1

MAP2K1_Cascade = target: T14, MAP2K1_Cascade (Homo sapiens, UniProt Q02750)
T14 construct: purchased Carna Biosciences

EPHA5 = target: T15, EPHA5 (Homo sapiens, UniProt P54756)
T15 construct: purchased Carna Biosciences

MNK2 = target: T16, MNK2 (Homo sapiens, UniProt Q9HBH9)
T16 construct: purchased Carna Biosciences

CK2α2/β = target: T17, CK2α2/β (Homo sapiens, UniProt P19784)
T17 construct: purchased Carna Biosciences

PEK = target: T18, PEK (Homo sapiens, UniProt Q9NZJ5)
T18 construct: purchased Carna Biosciences
From the text: as §1

JNK2 = target: T19, JNK2 (Homo sapiens, UniProt P45984)
T19 construct: purchased Carna Biosciences

MAP2K6_Cascade = target: T20, MAP2K6_Cascade (Homo sapiens, UniProt P52564)
T20 construct: purchased Carna Biosciences

HER4 = target: T21, HER4 (Homo sapiens, UniProt Q15303)
T21 construct: purchased Carna Biosciences
From the text: as §1

MST4 = target: T22, MST4 (Homo sapiens, UniProt Q9P289)
T22 construct: purchased Carna Biosciences
From the text: as §1

MAP3K2_Cascade = target: T23, MAP3K2_Cascade (Homo sapiens, UniProt Q9Y2U5)
T23 construct: purchased Carna Biosciences
From the text: as §1

BLK = target: T24, BLK (Homo sapiens, UniProt P51451)
T24 construct: purchased Carna Biosciences
From the text: as §1

SRPK1 = target: T25, SRPK1 (Homo sapiens, UniProt Q96SB4)
T25 construct: purchased Carna Biosciences
From the text: as §1

PKD3 = target: T26, PKD3 (Homo sapiens, UniProt O94806)
T26 construct: purchased Carna Biosciences

MSK1 = target: T27, MSK1 (Homo sapiens, UniProt O75582)
T27 construct: purchased Carna Biosciences
From the text: as §1

p38α = target: T28, p38α (Homo sapiens, UniProt Q16539)
T28 construct: purchased Carna Biosciences
From the text: as §1

PKACγ = target: T29, PKACγ (Homo sapiens, UniProt P22612)
T29 construct: purchased Carna Biosciences

SGK3 = target: T30, SGK3 (Homo sapiens, UniProt Q96BR1)
T30 construct: purchased Carna Biosciences

PDHK4 = target: T31, PDHK4 (Homo sapiens, UniProt Q16654)
T31 construct: purchased Carna Biosciences
From the text: as §1

KDR = target: T32, KDR (Homo sapiens, UniProt P35968)
T32 construct: purchased Carna Biosciences
From the text: as §1

TRKC = target: T33, TRKC (Homo sapiens, UniProt Q16288)
T33 construct: purchased Carna Biosciences
From the text: as §1

LATS2 = target: T34, LATS2 (Homo sapiens, UniProt Q9NRM7)
T34 construct: purchased Carna Biosciences

KIT = target: T35, KIT (Homo sapiens, UniProt P10721)
T35 construct: purchased Carna Biosciences
From the text: as §1

NEK9 = target: T36, NEK9 (Homo sapiens, UniProt Q8TD19)
T36 construct: purchased Carna Biosciences

CDK4/CycD3 = target: T37, CDK4/CycD3 (Homo sapiens, UniProt P11802)
T37 construct: purchased Carna Biosciences
From the text: as §1

IRAK4 = target: T38, IRAK4 (Homo sapiens, UniProt Q9NWZ3)
T38 construct: purchased Carna Biosciences
From the text: as §1

EPHB4 = target: T39, EPHB4 (Homo sapiens, UniProt P54760)
T39 construct: purchased Carna Biosciences
From the text: as §1

ALK = target: T40, ALK (Homo sapiens, UniProt Q9UM73)
T40 construct: purchased Carna Biosciences
From the text: as §1

p38β = target: T41, p38β (Homo sapiens, UniProt Q15759)
T41 construct: purchased Carna Biosciences
From the text: as §1

CaMK2β = target: T42, CaMK2β (Homo sapiens, UniProt Q13554)
T42 construct: purchased Carna Biosciences

CK1γ1 = target: T43, CK1γ1 (Homo sapiens, UniProt Q9HCP0)
T43 construct: purchased Carna Biosciences

FER = target: T44, FER (Homo sapiens, UniProt P16591)
T44 construct: purchased Carna Biosciences
T44 sequence (P16591 whole entry): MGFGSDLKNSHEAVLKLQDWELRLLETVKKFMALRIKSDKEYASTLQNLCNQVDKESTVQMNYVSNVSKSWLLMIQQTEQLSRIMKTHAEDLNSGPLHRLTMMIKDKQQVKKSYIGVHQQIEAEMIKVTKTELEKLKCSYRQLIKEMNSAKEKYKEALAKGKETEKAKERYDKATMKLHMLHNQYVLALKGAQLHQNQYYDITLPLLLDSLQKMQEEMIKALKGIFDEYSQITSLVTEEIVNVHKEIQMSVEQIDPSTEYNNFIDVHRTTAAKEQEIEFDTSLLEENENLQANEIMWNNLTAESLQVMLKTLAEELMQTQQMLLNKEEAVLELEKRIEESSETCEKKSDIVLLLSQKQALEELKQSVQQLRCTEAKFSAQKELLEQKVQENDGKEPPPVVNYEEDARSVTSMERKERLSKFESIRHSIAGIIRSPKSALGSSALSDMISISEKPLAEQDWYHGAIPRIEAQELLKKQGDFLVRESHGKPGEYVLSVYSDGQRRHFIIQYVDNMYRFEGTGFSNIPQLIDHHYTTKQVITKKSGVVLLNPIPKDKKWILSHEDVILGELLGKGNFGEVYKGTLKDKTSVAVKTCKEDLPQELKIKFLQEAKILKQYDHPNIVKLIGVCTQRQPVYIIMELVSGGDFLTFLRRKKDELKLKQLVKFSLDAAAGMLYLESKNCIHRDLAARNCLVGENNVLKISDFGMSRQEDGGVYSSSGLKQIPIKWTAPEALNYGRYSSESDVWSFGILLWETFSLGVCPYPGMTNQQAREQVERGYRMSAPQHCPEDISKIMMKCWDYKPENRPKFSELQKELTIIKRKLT
From the text: as §1

T37 sequence (P11802 whole entry): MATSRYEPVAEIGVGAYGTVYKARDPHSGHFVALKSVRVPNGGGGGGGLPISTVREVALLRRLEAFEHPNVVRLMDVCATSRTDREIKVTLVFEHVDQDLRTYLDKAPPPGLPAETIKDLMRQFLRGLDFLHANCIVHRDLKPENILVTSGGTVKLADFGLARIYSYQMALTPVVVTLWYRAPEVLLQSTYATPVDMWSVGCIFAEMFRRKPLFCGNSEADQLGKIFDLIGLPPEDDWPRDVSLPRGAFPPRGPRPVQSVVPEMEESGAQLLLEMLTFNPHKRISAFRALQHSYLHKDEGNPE
T37 sequence (P30281 whole entry partner): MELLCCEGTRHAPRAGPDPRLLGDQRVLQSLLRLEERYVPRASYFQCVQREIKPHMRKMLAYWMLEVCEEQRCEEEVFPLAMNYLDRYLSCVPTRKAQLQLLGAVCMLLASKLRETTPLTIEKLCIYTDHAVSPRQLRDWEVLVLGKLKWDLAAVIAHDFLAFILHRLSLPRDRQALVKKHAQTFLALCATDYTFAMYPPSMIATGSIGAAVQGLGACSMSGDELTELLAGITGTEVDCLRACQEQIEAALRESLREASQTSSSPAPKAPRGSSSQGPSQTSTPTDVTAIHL
T10 sequence (P04626 23-1255): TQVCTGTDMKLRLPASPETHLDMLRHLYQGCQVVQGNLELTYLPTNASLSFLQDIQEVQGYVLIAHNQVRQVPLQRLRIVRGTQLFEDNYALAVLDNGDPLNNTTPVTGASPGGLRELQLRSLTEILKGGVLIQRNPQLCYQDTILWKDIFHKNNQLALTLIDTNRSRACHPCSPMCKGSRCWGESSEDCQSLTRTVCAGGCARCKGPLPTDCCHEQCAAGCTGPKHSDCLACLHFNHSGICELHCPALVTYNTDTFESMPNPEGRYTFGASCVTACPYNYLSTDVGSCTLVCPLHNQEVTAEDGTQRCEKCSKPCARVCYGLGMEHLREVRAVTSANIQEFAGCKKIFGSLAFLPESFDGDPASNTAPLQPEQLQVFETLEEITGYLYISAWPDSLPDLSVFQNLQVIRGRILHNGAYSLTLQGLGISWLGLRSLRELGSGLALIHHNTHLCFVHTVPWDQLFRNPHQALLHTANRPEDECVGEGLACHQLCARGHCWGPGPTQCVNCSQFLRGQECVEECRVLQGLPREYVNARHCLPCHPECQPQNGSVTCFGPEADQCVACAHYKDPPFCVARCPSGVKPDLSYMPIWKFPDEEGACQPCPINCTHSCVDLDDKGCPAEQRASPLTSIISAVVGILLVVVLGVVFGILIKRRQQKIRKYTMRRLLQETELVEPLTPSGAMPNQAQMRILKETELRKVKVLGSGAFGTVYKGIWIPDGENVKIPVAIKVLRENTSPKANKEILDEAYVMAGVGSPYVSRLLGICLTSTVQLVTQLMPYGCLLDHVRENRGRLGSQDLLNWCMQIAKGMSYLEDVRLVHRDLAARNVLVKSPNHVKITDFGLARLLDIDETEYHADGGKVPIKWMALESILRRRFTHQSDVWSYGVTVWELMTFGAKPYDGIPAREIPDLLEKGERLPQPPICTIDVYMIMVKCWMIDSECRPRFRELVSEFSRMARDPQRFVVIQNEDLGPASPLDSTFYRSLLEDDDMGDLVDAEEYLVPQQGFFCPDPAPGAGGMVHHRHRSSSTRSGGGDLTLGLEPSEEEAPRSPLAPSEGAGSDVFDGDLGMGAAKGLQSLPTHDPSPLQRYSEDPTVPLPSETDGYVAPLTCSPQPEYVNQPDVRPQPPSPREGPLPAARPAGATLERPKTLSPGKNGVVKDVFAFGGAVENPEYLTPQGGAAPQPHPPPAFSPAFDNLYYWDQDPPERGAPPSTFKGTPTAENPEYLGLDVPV
T31 sequence (Q16654 whole entry): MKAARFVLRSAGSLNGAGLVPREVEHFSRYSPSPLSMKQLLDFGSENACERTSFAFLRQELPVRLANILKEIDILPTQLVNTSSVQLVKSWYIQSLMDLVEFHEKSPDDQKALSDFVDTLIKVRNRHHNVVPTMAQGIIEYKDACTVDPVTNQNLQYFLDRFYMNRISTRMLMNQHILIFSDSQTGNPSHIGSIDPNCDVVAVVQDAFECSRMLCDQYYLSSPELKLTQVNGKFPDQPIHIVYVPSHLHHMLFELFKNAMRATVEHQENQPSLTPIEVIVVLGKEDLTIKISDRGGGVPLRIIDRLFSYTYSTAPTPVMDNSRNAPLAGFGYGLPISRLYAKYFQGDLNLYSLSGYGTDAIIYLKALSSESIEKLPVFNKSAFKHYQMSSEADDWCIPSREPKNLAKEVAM
T14 sequence (Q02750 whole entry): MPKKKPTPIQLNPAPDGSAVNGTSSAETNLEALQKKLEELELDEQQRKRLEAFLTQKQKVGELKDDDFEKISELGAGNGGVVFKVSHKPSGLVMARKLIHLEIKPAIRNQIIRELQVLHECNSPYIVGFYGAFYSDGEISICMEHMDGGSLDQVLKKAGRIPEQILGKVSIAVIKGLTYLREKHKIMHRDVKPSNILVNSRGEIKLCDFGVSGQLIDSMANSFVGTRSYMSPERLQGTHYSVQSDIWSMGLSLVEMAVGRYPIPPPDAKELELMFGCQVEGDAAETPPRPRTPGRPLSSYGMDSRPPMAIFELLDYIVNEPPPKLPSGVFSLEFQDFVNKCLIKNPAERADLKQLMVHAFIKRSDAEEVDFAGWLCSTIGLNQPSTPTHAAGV
T33 sequence (Q16288 32-839): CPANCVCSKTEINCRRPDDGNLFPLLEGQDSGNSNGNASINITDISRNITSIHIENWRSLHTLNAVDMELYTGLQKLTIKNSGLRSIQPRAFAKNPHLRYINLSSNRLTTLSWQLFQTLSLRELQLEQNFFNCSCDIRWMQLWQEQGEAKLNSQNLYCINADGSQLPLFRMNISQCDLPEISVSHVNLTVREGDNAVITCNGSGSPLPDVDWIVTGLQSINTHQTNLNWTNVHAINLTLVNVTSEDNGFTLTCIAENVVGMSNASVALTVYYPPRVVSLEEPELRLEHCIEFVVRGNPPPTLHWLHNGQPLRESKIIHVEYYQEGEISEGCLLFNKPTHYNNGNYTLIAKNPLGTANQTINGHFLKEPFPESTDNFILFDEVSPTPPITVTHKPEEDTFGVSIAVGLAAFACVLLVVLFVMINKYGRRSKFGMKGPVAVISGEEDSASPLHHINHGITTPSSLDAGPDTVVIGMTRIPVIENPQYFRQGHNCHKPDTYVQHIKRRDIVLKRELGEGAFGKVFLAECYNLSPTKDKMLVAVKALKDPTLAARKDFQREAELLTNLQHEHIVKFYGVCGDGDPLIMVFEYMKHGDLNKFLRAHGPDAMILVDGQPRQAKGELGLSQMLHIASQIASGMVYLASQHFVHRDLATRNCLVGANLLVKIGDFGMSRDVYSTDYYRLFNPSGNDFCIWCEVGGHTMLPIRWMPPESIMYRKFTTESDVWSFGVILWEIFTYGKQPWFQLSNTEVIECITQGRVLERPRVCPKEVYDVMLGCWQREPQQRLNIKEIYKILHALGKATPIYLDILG
T38 sequence (Q9NWZ3 whole entry): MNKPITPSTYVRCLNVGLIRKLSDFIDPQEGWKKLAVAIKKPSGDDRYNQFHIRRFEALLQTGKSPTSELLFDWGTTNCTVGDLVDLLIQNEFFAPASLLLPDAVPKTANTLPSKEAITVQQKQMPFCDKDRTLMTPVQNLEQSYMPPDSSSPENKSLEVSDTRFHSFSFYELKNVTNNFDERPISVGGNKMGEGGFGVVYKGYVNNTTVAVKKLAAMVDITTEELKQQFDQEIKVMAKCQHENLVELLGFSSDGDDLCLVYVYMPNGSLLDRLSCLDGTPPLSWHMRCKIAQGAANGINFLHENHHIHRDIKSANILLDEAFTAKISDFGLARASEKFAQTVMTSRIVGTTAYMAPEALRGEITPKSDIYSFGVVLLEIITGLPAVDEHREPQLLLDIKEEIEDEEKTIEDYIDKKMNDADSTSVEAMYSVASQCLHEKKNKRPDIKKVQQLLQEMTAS

For `COc1ccc(/C=C2\SC(=S)NC2=O)cc1C#C[Si](C)(C)C` [FINDY], the inhibition at 10 µM (ROCK2) was -2%, the inhibition at 10 µM (TSSK2) was 39.9% and the inhibition at 10 µM (PIK3CA/PIK3R1) was 12.8%. For the same molecule, the inhibition at 10 µM (EPHA4) was 16.3%, the inhibition at 10 µM (YES) was 6.4% and the inhibition at 10 µM (PLK1) was 23.7%. The inhibition at 10 µM (CaMK4) was 2.4%, the inhibition at 10 µM (MAPKAPK5) was 5.2% and the inhibition at 10 µM (CK2α1/β) was 45.4%. For the same molecule, the inhibition at 10 µM (HER2) was -0.1%, the inhibition at 10 µM (MARK3) was 50.6% and the inhibition at 10 µM (INSR) was -1.3%. The inhibition at 10 µM (PDHK2) was 14.1%, the inhibition at 10 µM (MAP2K1_Cascade) was 44.2% and the inhibition at 10 µM (EPHA5) was 18.4%. The inhibition at 10 µM (MNK2) was 8.3%, the inhibition at 10 µM (CK2α2/β) was 72.5% and the inhibition at 10 µM (PEK) was 13%. It also gave an inhibition at 10 µM (JNK2) of 0.4%, an inhibition at 10 µM (MAP2K6_Cascade) of 23.5% and an inhibition at 10 µM (HER4) of -13.4%. For the same molecule, the inhibition at 10 µM (MST4) was 16.7%, the inhibition at 10 µM (MAP3K2_Cascade) was 55.8% and the inhibition at 10 µM (BLK) was 25.5%. It also gave an inhibition at 10 µM (SRPK1) of 7.5%, an inhibition at 10 µM (PKD3) of -13.4% and an inhibition at 10 µM (MSK1) of 3.8%. For the same molecule, the inhibition at 10 µM (p38α) was 10.6%, the inhibition at 10 µM (PKACγ) was 17.8% and the inhibition at 10 µM (SGK3) was 21.7%. It also gave an inhibition at 10 µM (PDHK4) of 14.8%, an inhibition at 10 µM (KDR) of 1.6% and an inhibition at 10 µM (TRKC) of 11.8%. For the same molecule, the inhibition at 10 µM (LATS2) was 1.2%, the inhibition at 10 µM (KIT) was 2.9% and the inhibition at 10 µM (NEK9) was -3.3%. It also gave an inhibition at 10 µM (CDK4/CycD3) of 8%, an inhibition at 10 µM (IRAK4) of -0.8% and an inhibition at 10 µM (EPHB4) of 20.5%. For the same molecule, the inhibition at 10 µM (ALK) was -4.3%, the inhibition at 10 µM (p38β) was 11.2% and the inhibition at 10 µM (CaMK2β) was -3.3%. The inhibition at 10 µM (CK1γ1) was 19.9% and the inhibition at 10 µM (FER) was 14.3%.
